# Experimental data taken from ChEMBL document CHEMBL3885881, “DrugMatrix”.
# Species: Rattus norvegicus
# Assay: DrugMatrix - Regimen: Daily Repeat
# Format: toxicity, organism-based, Sprague-Dawley
# Set-up: regimen Daily Repeat, gender Male, age 6-8 weeks
# Conditions: in vivo, po, route oral GAVAGE, […]; for ABSOLUTE BASOPHIL / ABSOLUTE EOSINOPHIL / ABSOLUTE LYMPHOCYTE / ABSOLUTE MONOCYTE / ABSOLUTE SEGMENTED NEUTROPHIL / BASOPHIL / EOSINOPHIL / ERYTHROCYTE COUNT / HEMATOCRIT / HEMOGLOBIN / LEUKOCYTE COUNT / LYMPHOCYTE / MEAN CORPUSCULAR HEMOGLOBIN / MEAN CORPUSCULAR HEMOGLOBIN CONCENTRATION / MEAN CORPUSCULAR VOLUME / MONOCYTE / NEUTROPHIL / NUCLEATED RED BLOOD CELLS / PLATELET COUNT: tissue Blood; for ALANINE AMINOTRANSFERASE / ALBUMIN / ALKALINE PHOSPHATASE / ASPARTATE AMINOTRANSFERASE / BLOOD UREA NITROGEN / CARBON DIOXIDE / CHLORIDE / CHOLESTEROL / CREATINE PHOSPHOKINASE / CREATININE / GLUCOSE / LACTATE DEHYDROGENASE / LIPASE / PHOSPHORUS / POTASSIUM / SODIUM / TOTAL BILIRUBIN / TOTAL PROTEIN / URIC ACID: tissue Plasma
# [1] = 250 mg/kg, 72 h, dose level Low, time 3 day
# [2] = 250 mg/kg, 120 h, dose level Low, time 5 day
# [3] = 930 mg/kg, 72 h, dose level High, time 3 day
# [4] = 930 mg/kg, 120 h, dose level High, time 5 day
smiles,measurement,setting,value
CC12CCC(CC1)C(C)(C)O2 [EUCALYPTOL],ABSOLUTE BASOPHIL,[1],0 CELLS/uL
same,ABSOLUTE EOSINOPHIL,[1],0 CELLS/uL
same,ABSOLUTE LYMPHOCYTE,[1],12865.33 CELLS/uL
same,ABSOLUTE MONOCYTE,[1],104 CELLS/uL
same,ABSOLUTE SEGMENTED NEUTROPHIL,[1],1797.33 CELLS/uL
same,BASOPHIL,[1],0%
same,EOSINOPHIL,[1],0%
same,ERYTHROCYTE COUNT,[1],5.22 x10E6/uL
same,HEMATOCRIT,[1],32.73%
same,HEMOGLOBIN,[1],12.97 G/DL
same,LEUKOCYTE COUNT,[1],14.77 x10E3/uL
same,LYMPHOCYTE,[1],87.33%
same,MEAN CORPUSCULAR HEMOGLOBIN,[1],24.83 pg
same,MEAN CORPUSCULAR HEMOGLOBIN CONCENTRATION,[1],39.63 G/DL
same,MEAN CORPUSCULAR VOLUME,[1],62.77 fL
same,MONOCYTE,[1],0.67%
same,NEUTROPHIL,[1],12%
same,NUCLEATED RED BLOOD CELLS,[1],0 /100WBC
same,PLATELET COUNT,[1],1143.67 x10E3/uL
same,ALANINE AMINOTRANSFERASE,[1],68.67 u/L
same,ALBUMIN,[1],4.03 G/DL
same,ALKALINE PHOSPHATASE,[1],413.33 u/L
same,ASPARTATE AMINOTRANSFERASE,[1],95.33 u/L
same,BLOOD UREA NITROGEN,[1],12.33 mg/dL
same,CARBON DIOXIDE,[1],24 mmol/L
same,CHLORIDE,[1],103.67 MEQ/L
same,CHOLESTEROL,[1],84.67 mg/dL
same,CREATINE PHOSPHOKINASE,[1],439.67 u/L
same,CREATININE,[1],0.17 mg/dL
same,GLUCOSE,[1],160.33 mg/dL
same,LACTATE DEHYDROGENASE,[1],154.67 u/L
same,LIPASE,[1],10.33 u/L
same,PHOSPHORUS,[1],12.5 mg/dL
same,POTASSIUM,[1],6.64 MEQ/L
same,SODIUM,[1],145.33 MEQ/L
same,TOTAL BILIRUBIN,[1],0.2 mg/dL
same,TOTAL PROTEIN,[1],5.53 G/DL
same,URIC ACID,[1],1.43 mg/dL
same,ABSOLUTE BASOPHIL,[2],0 CELLS/uL
same,ABSOLUTE EOSINOPHIL,[2],0 CELLS/uL
same,ABSOLUTE LYMPHOCYTE,[2],15020.67 CELLS/uL
same,ABSOLUTE MONOCYTE,[2],301.67 CELLS/uL
same,ABSOLUTE SEGMENTED NEUTROPHIL,[2],1277.67 CELLS/uL
same,BASOPHIL,[2],0%
same,EOSINOPHIL,[2],0%
same,ERYTHROCYTE COUNT,[2],5.46 x10E6/uL
same,HEMATOCRIT,[2],34.57%
same,HEMOGLOBIN,[2],14.17 G/DL
same,LEUKOCYTE COUNT,[2],16.6 x10E3/uL
same,LYMPHOCYTE,[2],90.33%
same,MEAN CORPUSCULAR HEMOGLOBIN,[2],25.97 pg
same,MEAN CORPUSCULAR HEMOGLOBIN CONCENTRATION,[2],40.97 G/DL
same,MEAN CORPUSCULAR VOLUME,[2],63.33 fL
same,MONOCYTE,[2],1.67%
same,NEUTROPHIL,[2],8%
same,NUCLEATED RED BLOOD CELLS,[2],0.67 /100WBC
same,PLATELET COUNT,[2],1304.67 x10E3/uL
same,ALANINE AMINOTRANSFERASE,[2],61 u/L
same,ALBUMIN,[2],4.2 G/DL
same,ALKALINE PHOSPHATASE,[2],377.33 u/L
same,ASPARTATE AMINOTRANSFERASE,[2],78.33 u/L
same,BLOOD UREA NITROGEN,[2],16 mg/dL
same,CARBON DIOXIDE,[2],24.33 mmol/L
same,CHLORIDE,[2],103 MEQ/L
same,CHOLESTEROL,[2],71 mg/dL
same,CREATINE PHOSPHOKINASE,[2],231.33 u/L
same,CREATININE,[2],0.17 mg/dL
same,GLUCOSE,[2],153.67 mg/dL
same,LACTATE DEHYDROGENASE,[2],170.67 u/L
same,LIPASE,[2],10 u/L
same,PHOSPHORUS,[2],12.6 mg/dL
same,POTASSIUM,[2],6.77 MEQ/L
same,SODIUM,[2],146.3 MEQ/L
same,TOTAL BILIRUBIN,[2],0.13 mg/dL
same,TOTAL PROTEIN,[2],5.97 G/DL
same,URIC ACID,[2],1.53 mg/dL
same,ABSOLUTE BASOPHIL,[3],0 CELLS/uL
same,ABSOLUTE EOSINOPHIL,[3],0 CELLS/uL
same,ABSOLUTE LYMPHOCYTE,[3],15782.67 CELLS/uL
same,ABSOLUTE MONOCYTE,[3],121.67 CELLS/uL
same,ABSOLUTE SEGMENTED NEUTROPHIL,[3],2129 CELLS/uL
same,BASOPHIL,[3],0%
same,EOSINOPHIL,[3],0%
same,ERYTHROCYTE COUNT,[3],5.63 x10E6/uL
same,HEMATOCRIT,[3],35.83%
same,HEMOGLOBIN,[3],14.2 G/DL
same,LEUKOCYTE COUNT,[3],18.03 x10E3/uL
same,LYMPHOCYTE,[3],87.67%
same,MEAN CORPUSCULAR HEMOGLOBIN,[3],25.3 pg
same,MEAN CORPUSCULAR HEMOGLOBIN CONCENTRATION,[3],39.67 G/DL
same,MEAN CORPUSCULAR VOLUME,[3],63.73 fL
same,MONOCYTE,[3],0.67%
same,NEUTROPHIL,[3],11.67%
same,NUCLEATED RED BLOOD CELLS,[3],0 /100WBC
same,PLATELET COUNT,[3],1268 x10E3/uL
same,ALANINE AMINOTRANSFERASE,[3],85.33 u/L
same,ALBUMIN,[3],4.33 G/DL
same,ALKALINE PHOSPHATASE,[3],424.33 u/L
same,ASPARTATE AMINOTRANSFERASE,[3],90.67 u/L
same,BLOOD UREA NITROGEN,[3],16.67 mg/dL
same,CARBON DIOXIDE,[3],23.33 mmol/L
same,CHLORIDE,[3],103 MEQ/L
same,CHOLESTEROL,[3],84.33 mg/dL
same,CREATINE PHOSPHOKINASE,[3],211.67 u/L
same,CREATININE,[3],0.24 mg/dL
same,GLUCOSE,[3],153.67 mg/dL
same,LACTATE DEHYDROGENASE,[3],86.67 u/L
same,LIPASE,[3],11.67 u/L
same,PHOSPHORUS,[3],12.2 mg/dL
same,POTASSIUM,[3],6.76 MEQ/L
same,SODIUM,[3],146.43 MEQ/L
same,TOTAL BILIRUBIN,[3],0.13 mg/dL
same,TOTAL PROTEIN,[3],6.03 G/DL
same,URIC ACID,[3],1.67 mg/dL
same,ABSOLUTE BASOPHIL,[4],0 CELLS/uL
same,ABSOLUTE EOSINOPHIL,[4],0 CELLS/uL
same,ABSOLUTE LYMPHOCYTE,[4],18083.67 CELLS/uL
same,ABSOLUTE MONOCYTE,[4],256.67 CELLS/uL
same,ABSOLUTE SEGMENTED NEUTROPHIL,[4],1226.33 CELLS/uL
same,BASOPHIL,[4],0%
same,EOSINOPHIL,[4],0%
same,ERYTHROCYTE COUNT,[4],5.66 x10E6/uL
same,HEMATOCRIT,[4],35.63%
same,HEMOGLOBIN,[4],14.2 G/DL
same,LEUKOCYTE COUNT,[4],19.57 x10E3/uL
same,LYMPHOCYTE,[4],92.33%
same,MEAN CORPUSCULAR HEMOGLOBIN,[4],25.1 pg
same,MEAN CORPUSCULAR HEMOGLOBIN CONCENTRATION,[4],39.87 G/DL
same,MEAN CORPUSCULAR VOLUME,[4],62.97 fL
same,MONOCYTE,[4],1.33%
same,NEUTROPHIL,[4],6.33%
same,NUCLEATED RED BLOOD CELLS,[4],0 /100WBC
same,PLATELET COUNT,[4],1326.67 x10E3/uL
same,ALANINE AMINOTRANSFERASE,[4],58 u/L
same,ALBUMIN,[4],4.17 G/DL
same,ALKALINE PHOSPHATASE,[4],302.33 u/L
same,ASPARTATE AMINOTRANSFERASE,[4],76.33 u/L
same,BLOOD UREA NITROGEN,[4],14 mg/dL
same,CARBON DIOXIDE,[4],26.33 mmol/L
same,CHLORIDE,[4],101.67 MEQ/L
same,CHOLESTEROL,[4],73 mg/dL
same,CREATINE PHOSPHOKINASE,[4],275 u/L
same,CREATININE,[4],0.22 mg/dL
same,GLUCOSE,[4],158 mg/dL
same,LACTATE DEHYDROGENASE,[4],114.33 u/L
same,LIPASE,[4],11 u/L
same,PHOSPHORUS,[4],11.8 mg/dL
same,POTASSIUM,[4],6.84 MEQ/L
same,SODIUM,[4],145.5 MEQ/L
same,TOTAL BILIRUBIN,[4],0.23 mg/dL
same,TOTAL PROTEIN,[4],5.97 G/DL
same,URIC ACID,[4],1.8 mg/dL
